From patent US20140234359A1, “PLANT VIRAL VACCINES AND THERAPEUTICS” (priority 2011, published 2014)

System: T-24 human bladder cancer cells
Test: Cell death of T-24 cells after anti-viral treatment, flow cytometry
Type: cell-based
Conditions: 10 μM efavirenz, 48 hours, vs methanol control
Protocol: T-24 human bladder cells were grown in a 12 well plate in a total volume of 2 mL of 10% FBS complete RPMI. Cells were left untreated or treated with 2 μL of methanol (Sigma-Aldrich) or treated with 10 μM efavirenz (Toronto Research Chemicals Cat# E425000). Cells were grown in CO2 incubator at 37° C. for 48 hours. After 48 hours, cells were harvested and counted using trypan blue on a hemocytometer.
The human bladder cancer T24 cell line was used to determine the effects of and anti-viral treatment on human tumor cells infected with plant virus. The T24 cells were grown in culture and then treated or not with the anti-reverse transcriptase drug, efavirenz, for twenty four or forty eight hours. Cell death assays were performed in triplicate. […] It is expected that treatment of the bladder cancer cells with a TLR activator to activate new virus replication in combination with the anti-viral drug will be useful in increasing cell death further. FIG. 2a depicts flow cytometer results on T-24 Human bladder cancer cells treated with efavirenz or methanol control for 48 hours. FIG. 2b is a bar graph depiction of the data.

With O=C1Nc2ccc(Cl)cc2[C@@](C#CC2CC2)(C(F)(F)F)O1 [efavirenz] as the molecule, how does the cell death read?
The cell death was “increased death”.

And the cell death (listed as Efavirenz)?
The cell death was “effective in killing a percentage of the cells”.
